Here are results for 41 molecules from ChEMBL document CHEMBL5137049, “Discovery of a Novel Small-Molecule Inhibitor Disrupting TRBP-Dicer Interaction against Hepatocellular Carcinoma via the Modulation of microRNA Biogenesis” (J Med Chem, 2022).

One assay has as its system HeLa. In words: Inhibition of microRNA in human HeLa cells transfected with pCI-neo-luciferase-miR-21 plasmid assessed as change in luciferase signal by measuring relative luciferase unit by luciferase reporter assay. Type of assay: cell-based. A general note: Reporter assays use an easily measured gene product as a stand-in for the process of interest.
Assay [1] concerns the target T1, Programmed cell death protein 4 (Homo sapiens) (UniProt Q53EL6).
T1 sequence (whole entry): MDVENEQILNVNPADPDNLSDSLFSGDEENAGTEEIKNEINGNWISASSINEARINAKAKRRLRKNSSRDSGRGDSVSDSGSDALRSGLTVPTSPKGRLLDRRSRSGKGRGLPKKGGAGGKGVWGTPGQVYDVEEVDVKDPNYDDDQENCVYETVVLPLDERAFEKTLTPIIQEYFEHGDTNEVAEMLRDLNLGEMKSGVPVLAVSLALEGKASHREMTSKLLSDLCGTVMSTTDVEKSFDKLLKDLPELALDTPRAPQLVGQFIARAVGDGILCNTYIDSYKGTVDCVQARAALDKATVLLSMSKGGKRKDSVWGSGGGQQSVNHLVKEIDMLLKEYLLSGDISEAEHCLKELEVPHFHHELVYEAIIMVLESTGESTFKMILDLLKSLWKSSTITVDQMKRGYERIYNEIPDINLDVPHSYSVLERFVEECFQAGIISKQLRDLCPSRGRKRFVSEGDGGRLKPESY
As to the kind of experiment: Inhibition of PDCD4 in human HeLa cells tranfected with pCI-neo-luciferase-PDCD4 3'-UTR plasmid assessed as fold change in luciferase signal by measuring relative luciferase unit by luciferase reporter assay. The assay is classed as cell-based.

Assay [2] in a line: Inhibition of microRNA in human HeLa cells transfected with pCI-neo-luciferase-miR-21 plasmid assessed as change in luciferase signal incubated for 24 hrs by luciferase reporter assay. The assay is classed as cell-based.
For assay [3], the system named is SK-HEP1. As to the kind of experiment: Inhibition of cell migration in human SK-HEP1 cells at 10 to 25 uM measured after 24 hrs by crystal violet staining based transwell assay. As to conditions: dose 10-25 µM. Type of assay: functional.
The next assay concerns HCCLM3. In words: Antiproliferative activity against human HCCLM3 cells assessed as inhibition of cell growth incubated for 72 hrs by CellTiter-luminescence assay. Type of assay: functional, cell-based.
The subject of assay [4] is SK-HEP1. As to the kind of experiment: Antiproliferative activity against human SK-HEP1 cells assessed as inhibition of cell growth incubated for 72 hrs by CellTiter-luminescence assay. The assay is classed as functional, cell-based.

Molecules are shown by their SMILES. Activity calls are given as the source filed them. The calls are words filed in the database; no cut-off is given here.

Take `COc1ccc(S(=O)(=O)N(Cc2nc(-c3cc(OC)c(OC)c(OC)c3)oc2C)[C@@H](C(=O)O)C(C)C)cc1`: the RLU amounted to 1.08 with HeLa and 1.02 in assay [1].
As to `COC(=O)[C@@H](C(C)C)N(Cc1nc(-c2ccc(OCc3ccccc3)cc2)oc1C)S(=O)(=O)c1ccc(OC)cc1`, the figures for the RLU (in the assay on HeLa; in assay [1]) were 1.58 and 1.32, respectively.
The matching figures for `Cc1oc(-c2ccc(OCc3ccccc3)cc2)nc1CCl`: 4.77 and 2.01.
Take `COc1ccc(S(=O)(=O)N(Cc2nc(-c3ccc(OCc4ccccc4)cc3)oc2C)[C@@H](C(=O)O)C(C)C)cc1`: the values for the RLU (in the assay with HeLa; in assay [1]) were 2.47 and 1.65, respectively.
Turning to `Cc1oc(-c2ccccc2)nc1CCl`, the RLU in the assay with HeLa is 1.13; in assay [1], 1.03.
Turning to `COc1ccc(S(=O)(=O)N(Cc2nc(-c3ccc(Cl)cc3)oc2C)[C@@H](C(=O)O)C(C)C)cc1`, the RLU with HeLa was 1.06; in assay [1], 0.97.
For `Cc1oc(-c2ccc([N+](=O)[O-])cc2)nc1CCl`, in that order: 1.2 and 1.11.
In the case of `CCOC(=O)c1nc(-c2ccc(OC)c(OC)c2)oc1C`, the figures for the RLU (in the assay with HeLa; in assay [1]) were 1.35 and 1.17, respectively.
For `COc1ccc(S(=O)(=O)N(Cc2nc(-c3ccc([N+](=O)[O-])cc3)oc2C)[C@@H](C(=O)O)C(C)C)cc1`, in that order: 1.17 and 1.02.
As usually defined, the EC50 is the concentration needed to bring the measured effect to its halfway point. Consider `CCOC(=O)c1nc(-c2ccc(Cl)cc2)oc1C`, for which the EC50 in assay [2] turned out to be 7.34 µM.
Turning to `COc1ccc(S(=O)(=O)N(Cc2nc(-c3cc(OC)c(OC)c(OC)c3)oc2C)[C@@H](C(=O)NO)C(C)C)cc1`, the RLU in the assay on HeLa came out at 1.06; in assay [1], 0.94.
For `CCOC(=O)c1nc(-c2ccc(-c3ccccc3)cc2)oc1C`, the inhibition result in the assay with SK-HEP1 [3] is “Active”. Also, the outcome with HCCLM3 and in the assay on SK-HEP1 [4] was Active. Also, the EC50 in assay [2] amounted to 1.85 µM.
Take `COc1ccc(S(=O)(=O)N(Cc2nc(-c3ccccc3)oc2C)[C@@H](C(=O)O)C(C)C)cc1`: the RLU in the assay on HeLa was determined as 1.05; in assay [1], 1.01.
For `COc1ccc(S(=O)(=O)N(Cc2nc(-c3ccc(OC)c(OC)c3)oc2C)[C@@H](C(=O)O)C(C)C)cc1`, in that order: 1.02 and 0.86.
In the case of `COc1ccc(-c2nc(CN([C@@H](C(=O)O)C(C)C)S(=O)(=O)c3ccc(C)cc3)c(C)o2)cc1OC`, the RLU in the assay with HeLa was found to be 0.98; in assay [1], 0.97.
The matching figures for `Cc1ccc(S(=O)(=O)N(Cc2nc(-c3ccc(Cl)cc3)oc2C)[C@@H](C(=O)O)C(C)C)cc1`: 1.14 and 1.03.
For `COc1ccc(-c2nc(CCl)c(C)o2)cc1`, in that order: 1.12 and 1.05.
For `COC(=O)[C@@H](C(C)C)N(Cc1nc(-c2cc(OC)c(OC)c(OC)c2)oc1C)S(=O)(=O)c1ccc(OC)cc1`, in that order: 1.08 and 1.03.
In the case of `CCOC(=O)c1nc(-c2ccc(Br)cc2)oc1C`, the EC50 in assay [2] stood at 5.98 µM.
For the molecule `COC(=O)[C@H](NS(=O)(=O)c1ccc(OC)cc1)C(C)C`, the RLU was 1.02 in the assay on HeLa and 1.06 in assay [1].
The matching figures for `COc1cc(-c2nc(CCl)c(C)o2)cc(OC)c1OC`: 1.09 and 2.01.
As to `COc1ccc(-c2nc(CN([C@@H](C(=O)O)C(C)C)S(=O)(=O)c3ccc(C)cc3)c(C)o2)cc1`, the RLU in the assay with HeLa was 1.12; in assay [1], 1.05.
The matching figures for `COC(=O)[C@@H](C(C)C)N(Cc1nc(-c2ccc(Cl)cc2)oc1C)S(=O)(=O)c1ccc(OC)cc1`: 1.12 and 0.93.
The matching figures for `COC(=O)[C@H](NS(=O)(=O)c1ccc(C)cc1)C(C)C`: 1.04 and 1.03.
The matching figures for `COC(=O)[C@@H](C(C)C)N(Cc1nc(-c2ccccc2)oc1C)S(=O)(=O)c1ccc(OC)cc1`: 0.96 and 1.09.
In the case of `COc1ccc(-c2nc(CN([C@@H](C(=O)NO)C(C)C)S(=O)(=O)c3ccc(OC)cc3)c(C)o2)cc1`, the results for the RLU (in the assay with HeLa; in assay [1]) were 1.01 and 1.02, respectively.
As to `COC(=O)[C@@H](C(C)C)N(Cc1nc(-c2ccc(OC)c(OC)c2)oc1C)S(=O)(=O)c1ccc(OC)cc1`, the RLU in the assay with HeLa came out at 1.06; in assay [1], 0.95.
For `COC(=O)[C@@H](C(C)C)N(Cc1nc(-c2ccc(OC)cc2)oc1C)S(=O)(=O)c1ccc(OC)cc1`, in that order: 0.99 and 1.03.
Consider `Cc1oc(-c2ccc(-c3ccccc3)cc2)nc1C(=O)OCCO`, for which the inhibition result with SK-HEP1 [3] was “Active”. In addition, the result in the assay on HCCLM3 and in the assay with SK-HEP1 [4] was Active. The EC50 in assay [2] turned out to be 7.44 µM.
With `COC(=O)[C@@H](C(C)C)N(Cc1nc(-c2ccc([N+](=O)[O-])cc2)oc1C)S(=O)(=O)c1ccc(OC)cc1`, the RLU in the assay with HeLa is 0.98; in assay [1], 0.96.
For `COC(=O)[C@@H](C(C)C)N(Cc1nc(-c2ccc(Cl)cc2)oc1C)S(=O)(=O)c1ccc(C)cc1`, in that order: 1.03 and 1.08.
For `COc1ccc(-c2nc(CN([C@@H](C(=O)O)C(C)C)S(=O)(=O)c3ccc(OC)cc3)c(C)o2)cc1`, in that order: 1.04 and 1.
For `Cc1oc(-c2ccc(Cl)cc2)nc1CCl`, in that order: 1.22 and 1.11.
Turning to `COc1ccc(S(=O)(=O)N(Cc2nc(-c3ccc(OC)c(OC)c3)oc2C)[C@@H](C(=O)NO)C(C)C)cc1`, the RLU worked out at 1.02 with HeLa and 0.86 in assay [1].
For `COc1ccc(-c2nc(CCl)c(C)o2)cc1OC`, in that order: 1.3 and 1.06.
As to `COC(=O)[C@@H](C(C)C)N(Cc1nc(-c2ccc(OC)cc2)oc1C)S(=O)(=O)c1ccc(C)cc1`, the RLU in the assay on HeLa was found to be 1.06; in assay [1], 1.04.
For `CCOC(=O)c1nc(-c2ccccc2)oc1C`, in that order: 1.14 and 1.07.
With `COC(=O)[C@@H](C(C)C)N(Cc1nc(-c2ccc(OC)c(OC)c2)oc1C)S(=O)(=O)c1ccc(C)cc1`, the figures for the RLU (in the assay on HeLa; in assay [1]) were 1.08 and 0.95, respectively.
For `COc1ccc(S(=O)(=O)N(Cc2nc(-c3ccccc3)oc2C)[C@@H](C(=O)NO)C(C)C)cc1`, in that order: 1.02 and 0.98.
For `CCOC(=O)c1nc(-c2cc(OC)c(OC)c(OC)c2)oc1C`, in that order: 1.13 and 1.09.
For `CCOC(=O)c1nc(-c2ccc(C)cc2)oc1C`, in the assay on SK-HEP1 [3], the inhibition result was “Active”. Also, the result in the assay on HCCLM3 and in the assay on SK-HEP1 [4] was Active. In addition, the EC50 in assay [2] was found to be 2.99 µM.
